Test results as given in ChEMBL document CHEMBL3507680, “University of Dundee, Gates Library screen for HepG2 cell viability”.

Experiment: Human HepG2 cell viability assay in 384 well format
Format: toxicity, cell-based
Design: dose 125 nL, time 70.5 hour; cytotoxicity at 70.5 h: concentration not given beside the values
Settings: HepG2 cells, read-out: Inhibition

Structure (SMILES) | cytotoxicity at 70.5 h
Cc1cccc(CN2C[C@@H]3CN(C(=O)[C@H]4CCCO4)C[C@@H]3C2=O)c1 | -5.16%
COc1ccc2nc(C3CC3)cc(C(=O)NCCc3nnc[nH]3)c2c1 | -3.73%
c1cc(C2CCN(c3cnccn3)CC2)ccn1 | 17.3%
c1cc(C2CCCN2CC2CCCCC2)n[nH]1 (stereo not drawn) | -8.35%
O=C(NCc1cccc(N2CC=CC2)c1)NCC(F)(F)F | -2.26%
Cc1ccc(NC2CCN(C(=O)c3cccc4c3ccn4C)CC2)nn1 | -3.5%
Cc1csc(C2CCCN(C(=O)c3c[nH]c(C)n3)C2)n1 (stereo not drawn) | -1.13%
CCC[C@@H]1CN(C(=O)Cc2sc(C)nc2C)C[C@H]1C(=O)O | -5.07%
COc1cccc(OC)c1C(C(=O)O)N(C)Cc1c(C)n[nH]c1C (stereo not drawn) | -14.8%
CSCC(C)(O)CNS(=O)(=O)c1cccc(C)c1 (stereo not drawn) | 6.12%
Cn1nnc2c1CCN(Cc1ccccc1)C2COCC1CC1 (stereo not drawn) | -3.64%
O=C(Nc1nncs1)N(Cc1cccc(O)c1)C1CC1 | -4.79%
CNS(=O)(=O)CC(=O)N(Cc1ccsc1)c1ccccc1 | -8.25%
O=C(c1cc[nH]n1)N1CCC(c2nccn2Cc2ccncc2)CC1 | 0.529%
CC(NC(=O)N1CCCN(Cc2cccs2)CC1)c1cccnc1 (stereo not drawn) | -16.5%
Cc1nnc(CNC(=O)CC2CCc3ccccc32)o1 (stereo not drawn) | 25.8%
CCN1CC2(CC1=O)CN(Cc1ccoc1)CCN(C(=O)C(C)C)C2 (stereo not drawn) | -20.2%
Cc1ccnc(N2CCC(C(N)=O)CC2)n1 | 32.9%
Cc1ccc(CSc2nc(N)cc(NCCC(N)=O)n2)cc1 | -0.193%
NC(=O)CC1CCCCN1C(=O)c1ccc2cc[nH]c2c1 (stereo not drawn) | 21.6%
CC(CNC(=O)c1ccncc1F)Oc1ccc(F)cc1 (stereo not drawn) | -0.61%
Cc1nn(C)c2cn(C(C)C(=O)NCc3cccc(F)c3)nc12 (stereo not drawn) | -3%
CCCN1CCC(c2nc3ccc(-c4ccccc4)cn3n2)CC1 | -10.7%

Structure (SMILES) | cytotoxicity at 70.5 h
CN1CCn2c(-c3cnn(C)c3)cnc2C12CCN(CC1CC1)CC2 | -4.02%
O=C(c1cccc(F)c1)N1C[C@H]2CCCC(OCc3cccnc3)[C@H]2C1 (stereo partly drawn) | -7.83%
CN(C)CCOCC1CN(Cc2ccncc2)Cc2nnn(C)c21 (stereo not drawn) | 1.9%
CCc1nnc2n1CCN(Cc1ncc(-c3ccc(F)cc3)o1)C2 | -6.74%
NC(=O)NCC(=O)N1CCCC(c2nccn2CC2CCC2)C1 (stereo not drawn) | -1.33%
CC(C)CN(CC(F)(F)F)S(=O)(=O)c1cc(C(N)=O)n(C)c1 | 1.58%
Cc1ccc(CNC(=O)CNCC2CCN(CCO)CC2)s1 | -1.79%
N#Cc1ccc(CN2CCc3sccc3C2)c(F)c1 | -1.03%
O=S(=O)(NCCN1CCCCC1Cn1cncn1)c1ccccc1 (stereo not drawn) | -3.24%
COCCN1C(=O)CC[C@]12CC[C@@H](NCc1cccc(C)n1)CC2 | 0.785%
CC(C)CN1CC[C@@H]2[C@@H]1CCN2C(=O)N(C)C | -11.8%
O=C(NS(=O)(=O)c1ccccc1Cl)c1cccc2c1OCCO2 | -3.53%
O=C1CC[C@@H](CN(Cc2ccncc2)Cc2nc(CC3CC3)no2)N1 | -5.49%
CCCS(=O)(=O)Nc1ccc2c(c1)OCC(C)(C)C(=O)N2C | 7.24%
Cc1ccc2c(n1)N(Cc1cccnc1)CCN(C(=O)C1CC1)C2 | 11.2%
O=C(Nc1ccc2c(c1)OCCO2)c1ccc(=O)[nH]n1 | 15.5%
COc1cccc2c1N(CC(=O)Nc1ccc(Br)cn1)CCC2 | -3.62%
CCCOc1ccc(CNC(=O)N2CCC(C(N)=O)C2)cc1 (stereo not drawn) | -0.602%
COc1cccc2c1OCC(NC(=O)NC1CCN(C3CC3)CC1)C2 (stereo not drawn) | -5.93%
CC(C)[C@@H]1CN(Cc2cnc3c(S(C)(=O)=O)cnn3c2)C[C@H]1N(C)C | -7.81%
CCNC(=O)Nc1ccc(N2CCC(OC)CC2)c(C(F)(F)F)c1 | -1.82%
Cc1noc(C)c1CNc1c(N2CCCC2)cccc1N1CCCC1 | -5.49%
CC(Cc1ccccc1Br)NC(=O)CCS(C)(=O)=O (stereo not drawn) | 27.4%

Structure (SMILES) | cytotoxicity at 70.5 h
COc1ccc(S(=O)(=O)NC(=O)c2c(C)noc2C(C)C)cc1C | -5.8%
CCc1c(C)nc2cc(C3CCN(Cc4cccc(F)c4)C3)nn2c1O (stereo not drawn) | -7.92%
CN(C)C(=O)COCC1C[C@@H]2OCCN(Cc3ccco3)[C@H]2C1 (stereo partly drawn) | -15.5%
Cn1ccnc1CCNS(=O)(=O)c1cccc(Br)c1 | -2.62%
Cc1noc(-c2cnc(NC(C)C)nc2-c2ccco2)c1C | -13.3%
Cn1ccnc1CN1CCC(F)(F)C2(CCN(c3cccnc3)C2)C1 (stereo not drawn) | -8.56%
CNc1cncc(C2CCCN2c2cc(C)ncn2)n1 (stereo not drawn) | 17.1%
CC(C)N(C)Cc1ncn2c1CN(CC(=O)N(C)C)CCC2 | 8.76%
O=C(NCCc1ccc(Cl)s1)N1CCS(=O)(=O)CC1 | -3.08%
CC(C)C(=O)Nc1ncn(Cc2cccc(Br)c2)n1 | -9.36%
CC[C@H]1CN(C(=O)c2ccc(-n3cnnc3)nc2)CC[C@@]1(C)O | 36%
CCn1cc(CN2CCCN(C3Cc4ccccc4C3)CC2)cn1 | -7.57%
Cc1ccsc1-c1nccn1CCN(C)S(C)(=O)=O | -1.88%
CCCN1CCCn2c(nc(CNC(=O)c3cnoc3C)cc2=O)C1 | 16.5%
Cc1ncnc2c1CCN(S(=O)(=O)C1CC1)CC2 | -13.2%
Cn1ccnc1CN1CCC(CCCc2ccccn2)(C(N)=O)CC1 | -13.4%
CCC(C(=O)NCC1CCN(c2cnn(C)c(=O)c2)CC1)n1cccn1 (stereo not drawn) | -7.23%
CC(C)(N)C(=O)N1CCCC1c1cncc(Oc2ccc(F)cc2)n1 (stereo not drawn) | 0.148%
Cc1c(Br)cnn1CC(=O)Nc1ccon1 | -7.55%
Cc1nc(C(=O)NC2CCN(CCOc3ccc(Br)cc3)CC2)cs1 | 1.52%
CO[C@@H]1CC[C@H]2[C@H]1OCCN2Cc1ccccn1 | 18.3%
Cc1nc(-c2ccc(CO)cc2)cc(C2CCNCC2)n1 | -2.27%
CC(C)(CNc1c(C#N)cnc2ccc(Cl)cc12)C(N)=O | -17.7%

Structure (SMILES) | cytotoxicity at 70.5 h
CCOC(=O)N1CCN(c2nc(CCN)nc3sc(C)c(C)c23)CC1 | 1.12%
c1coc(-c2nnc([C@H]3CCN(Cc4ccc5c(c4)OCO5)C3)o2)c1 | -6.68%
CCCC(C)(C)NC(=O)CCN1CCOC1=O | 0.72%
NC(=O)CC1CCCN(c2cncc(OCc3ccccc3)n2)C1 (stereo not drawn) | 21.3%
CC1c2ncc(Cn3cncn3)n2CCN1C(=O)c1ccsc1 (stereo not drawn) | -4.72%
COCCCN1C(=O)CC[C@H]2CN(Cc3ncc[nH]3)CC[C@H]21 | 8.43%
O=C1CCCN1CCCC(=O)N1CCCC(c2ccn[nH]2)C1 (stereo not drawn) | -12%
COCCN(C)C1COC2(CCN(Cc3cccc(F)c3)CC2)C1 (stereo not drawn) | 10.1%
CN(C(=O)Cc1ccc(F)cc1)C1CCN(c2ccccn2)CC1 | -1.36%
COCC1CN(C(=O)c2ccco2)Cc2cn(C)nc21 (stereo not drawn) | 3.61%
Clc1ccc2nc(N3CCC(NCCCC4CCOC4)CC3)sc2c1 (stereo not drawn) | 48.3%
CCCc1ccc(S(=O)(=O)NC(=O)CCC2CCCO2)cc1 (stereo not drawn) | 3.11%
CC(c1cccc(S(N)(=O)=O)c1)N(C)CCCOc1ccccc1 (stereo not drawn) | -4.57%
CC(C)N1CCOCC2(CN(Cc3nccs3)CCO2)C1 (stereo not drawn) | -0.368%
CS(=O)(=O)NCCN1CCSCC1c1ccc(Cl)cc1 (stereo not drawn) | -2.66%
Fc1cnc(N2CCCC3(CCN(Cc4nccs4)C3)C2)nc1 (stereo not drawn) | 15%
COCCN(CC(C)C)C(=O)c1cccc(Nc2cnccn2)c1 | -13.9%
O=C(Cc1ccc(Br)s1)NCC(=O)Nc1cn[nH]c1 | -9.18%
O=C(NCC1CCOCC1)[C@H]1C[C@@H]2CCN(c3nncs3)C[C@@H]2O1 | -9.76%
CNc1cc(C)nc(N2C[C@H](C3CC3)[C@@H](N)C2)n1 | 6.57%
COc1cc(CNc2cnn(C)c2)cc2c1OCCO2 | -4.12%
CC(C)CC(=O)N1C[C@@H]2CCN(c3cnccn3)C[C@@H]2C1 | -5.35%
CCOC(=O)[C@H]1[C@@H](O)C(=O)N(C)C12CCN(C(=O)c1ccccc1)CC2 | -2.45%

Structure (SMILES) | cytotoxicity at 70.5 h
c1ccc(-c2noc(CN3CCc4cncnc4C3)n2)nc1 | -9.29%
COCCCN1CCC(NC(=O)C(C)C)CC1 | 7.82%
CCC[C@@H]1CN(c2ncnc3sccc23)C[C@H]1C(=O)O | -5.95%
CN(C)CC1(O)CCCN(Cc2ccccc2OCC(=O)N(C)C)C1 (stereo not drawn) | 2.4%
Cc1ncc2c(n1)CCN(C(C(N)=O)c1ccccc1)C2 (stereo not drawn) | -2.66%
Cc1cc(-c2nn(C)c(Cl)c2CN2CCOC(C(=O)O)C2)no1 (stereo not drawn) | 13.8%
O=C(CCNS(=O)(=O)c1ccccc1)NCc1ccoc1 | -9.84%
Cc1cc(COC(=O)[C@@H]2Cc3ccccc3CN2S(C)(=O)=O)no1 | 1.54%
CC(C)N1CCC2(C=C(C(=O)NC3CC3)c3ccccc32)CC1 | -1.67%
CNS(=O)(=O)CCCN1CCCC1c1noc(C)n1 (stereo not drawn) | -3.7%
Cc1cnc(-c2nc(NC3CCCC3)ncc2-c2onc(C)c2C)cn1 | -4.47%
Cc1ccc(S(=O)(=O)N2C[C@H]3C[C@H](NC(=O)c4cnn(C)c4)[C@H]3C2)cc1 | 33.7%
COc1cccc(-c2n[nH]cc2C(=O)NC(C)CC(=O)O)c1 (stereo not drawn) | -2.91%
O=C(NC1(c2cccc(F)c2)CCOCC1)c1ccccn1 | 12%
CCS(=O)(=O)N1CCN(C(=O)NC(C)C)CC2(CC(=O)N(C)C2)C1 (stereo not drawn) | -7.37%
CCNc1ncc(C)c(-c2cnn(C)c2)n1 | -13.2%
O=C(CCN1CCc2ccccc21)N1C[C@@H](O)[C@H](N2CCCC2)C1 | -7.06%
CCNc1ncc(C(=O)N2CCOC(CCCC(C)C)C2)cn1 (stereo not drawn) | -7.7%
CCn1c(CN(C)C)nnc1C1CCN(Cc2ccc(C)s2)CC1 | -2.28%
CC(=O)c1ccc(NC(=O)N(CCN(C)C)Cc2ccc(C)s2)cc1 | 2.42%
Cc1ccc(-c2ccnc3cc(CC(=O)N4CCN(C)CC4)nn23)cc1 | 0.106%
